This is an account of results in ChEMBL document CHEMBL5244256, “Selenium as an interesting option for the treatment of Chagas disease: A review” (Eur J Med Chem, 2020).

The nature of data set [1]: Selectivity ratio of IC50 for cytotoxicity against human MRC5 cells to IC50 for Trypanocidal activity against Trypanosoma cruzi Tulahuen CL2 strain. The format is toxicity, cell-based. The conditions noted are these: read-out: Ratio IC50.
Data set [2] relates to Trypanosoma cruzi. The data set is described as follows: Trypanocidal activity against Trypanosoma cruzi Y strain. It is filed as functional, organism-based.
For data set [3], the system named is Trypanosoma cruzi. The data set is described as follows: Trypanocidal activity against Trypanosoma cruzi Y strain amastigotes measured after 48 hrs. The format is functional, organism-based.
The nature of data set [4]: Selectivity ratio of IC50 for cytotoxicity against human THP-1 cells to IC50 for Antileishmanial activity against Leishmania infantum MCAN/ES/89/IPZ229/1/89 amastigotes. It is filed as toxicity, cell-based. The conditions noted are these: read-out: Ratio IC50.
The subject of data set [5] is Leishmania infantum. The data set is described as follows: Antileishmanial activity against Leishmania infantum MCAN/ES/89/IPZ229/1/89 promastigotes assessed as reduction in parasite growth incubated for 24 hrs by flow cytometry analysis. It is filed as functional, organism-based. The conditions noted are these: MCAN/ES/89/IPZ229/1/89, 24 h.
Data set [6] has as its system Leishmania infantum. The data set is described as follows: Antileishmanial activity against Leishmania infantum MCAN/ES/89/IPZ229/1/89 amastigotes assessed as reduction in parasite growth incubated for 24 hrs by flow cytometry analysis. It is filed as functional, organism-based. The conditions noted are these: MCAN/ES/89/IPZ229/1/89, 24 h. (A flow cytometer gives signals particle by particle.)

In data set [7] the test system is Trypanosoma cruzi. The data set is described as follows: Potency index, ratio of test compound IC50 to Benznidazole IC50 for Trypanocidal activity against Trypanosoma cruzi Y strain measured after 24 hrs. The format is functional.
Data set [8] deals with Trypanosoma cruzi. The data set is described as follows: Trypanocidal activity against Trypanosoma cruzi Y strain epimastigotes measured after 72 hrs. The format is functional, organism-based.
Data set [9] relates to Trypanosoma cruzi. The data set is described as follows: Trypanocidal activity against Trypanosoma cruzi Y strain measured after 24 hrs. It is filed as functional, organism-based.
The nature of data set [10]: Selectivity ratio of IC50 for cytotoxicity against mouse J774.1 cells to IC50 for Trypanocidal activity against Trypanosoma cruzi Tulahuen 2 strain. The format is toxicity, cell-based. The conditions noted are these: read-out: Ratio IC50.

Take `CCOc1cccc2sc(N(Cc3cccnc3)C(=O)C3CCCCC3)nc12`: the selectivity ratio in data set [1] is > 200.

The IC50 is the concentration that gives 50% inhibition. Regarding `CC1(C)OC2=C(CC1[Se]c1cccc(Br)c1)C(=O)C(=O)c1ccccc12` (stereo not given), half-maximal inhibition with Trypanosoma cruzi [2] (IC50) required 477 µM.

Molecule `CCNC(=O)SCCOc1ccc(Oc2ccccc2)cc1` showed a concentration for half-maximal inhibition (IC50) in the data set with Trypanosoma cruzi [3] of 7.88 µM.

In turn, `O=C(Cn1ccnc1[N+](=O)[O-])NCc1ccccc1` [BENZNIDAZOLE] returned an IC50 with Trypanosoma cruzi [2] of 104 µM.

In the case of `C[Se]/C(=N/C(=O)c1cccnc1)NC(=O)c1cccnc1`, in data set [4], the selectivity ratio was 4. Further, the IC50 in the data set on Leishmania infantum [5] is 3.74 µM; in the data set with Leishmania infantum [6], 3.03 µM.

For the molecule `Cc1cccc([Se]C2CC3=C(OC2(C)C)c2ccccc2C(=O)C3=O)c1` (stereo not given), the half-maximal inhibitory concentration (IC50) with Trypanosoma cruzi [2] was found to be 1680 µM.

`CC1(C)OC2=C(CC1[Se]c1ccc(C(F)(F)F)cc1)C(=O)C(=O)c1ccccc12` (stereo not given) came in with a concentration for half-maximal inhibition (IC50) in the data set with Trypanosoma cruzi [2] of 54.9 µM. Also, the “Ratio IC50” value with Trypanosoma cruzi [7] stood at 2.

Molecule `CC(C)=CCC/C(C)=C/COc1ccc(CCN(C)C(=O)/C=C/S(C)(=O)=O)cc1` registered an IC50 in the data set with Trypanosoma cruzi [8] of 1.23 µM.

Consider `CC1(C)OC2=C(CC1[Se]c1cccc(Cl)c1)C(=O)C(=O)c1ccccc12` (stereo not given), for which it took 360 µM to reach half-maximal inhibition with Trypanosoma cruzi [2] (IC50).

In the data set on Trypanosoma cruzi [9], `COc1ccccc1/C=C/C=N/NC(N)=S` had an IC50 of 0.4 µM.

`COc1cccc([Se]C2CC3=C(OC2(C)C)c2ccccc2C(=O)C3=O)c1` (stereo not given): the midpoint of inhibition in the data set with Trypanosoma cruzi [2], the IC50, lay at 208 µM.

In the case of `O=C(CS/C(C(=O)c1ccc2ccccc2c1)=C1\C=C(c2ccc(O)cc2)SS1)c1ccc2ccccc2c1`, in [10], the selectivity ratio at 48 h stood at 12.8.
